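Five compound concentrations were applied to cells in 96-well plates for 48 hours; endpoints were derived by simple linear interpolation of the resulting dose-response curve. At the TGI there is no net growth.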
Legend:
Test in all cases: NCI-60 cell line screen, 48 h
[1] = test system: 786-0 renal
[2] = test system: A498 renal
[3] = test system: A549 NSCLC
[4] = test system: ACHN renal
[5] = test system: BT-549 breast
[6] = test system: CAKI-1 renal
[7] = test system: CCRF-CEM leukemia
[8] = test system: COLO 205 colon
[9] = test system: DU-145 prostate
[10] = test system: EKVX NSCLC
[11] = test system: HCC-2998 colon
[12] = test system: HCT-116 colon
[13] = test system: HCT-15 colon
[14] = test system: HL-60(TB) leukemia
[15] = test system: HOP-62 NSCLC
[16] = test system: HOP-92 NSCLC
[17] = test system: HS 578T breast
[18] = test system: HT29 colon
[19] = test system: IGROV1 ovarian
[20] = test system: K-562 leukemia
[21] = test system: KM12 colon
[22] = test system: LOX IMVI melanoma
[23] = test system: M14 melanoma
[24] = test system: MALME-3M melanoma
[25] = test system: MCF7 breast
[26] = test system: MDA-MB-231 breast
[27] = test system: MDA-MB-435
[28] = test system: MDA-N
[29] = test system: MOLT-4 leukemia
[30] = test system: NCI-H226 lung
[31] = test system: NCI-H23 lung
[32] = test system: NCI-H460 lung
[33] = test system: NCI-H522 lung
[34] = test system: NCI/ADR-RES ovarian
[35] = test system: OVCAR-3 ovarian
[36] = test system: OVCAR-4 ovarian
[37] = test system: OVCAR-5 ovarian
[38] = test system: OVCAR-8 ovarian
[39] = test system: PC-3 prostate
[40] = test system: RPMI-8226 leukemia
[41] = test system: RXF 393 renal
[42] = test system: SF-268 CNS
[43] = test system: SF-295 CNS
[44] = test system: SF-539 CNS
[45] = test system: SK-MEL-2 melanoma
[46] = test system: SK-MEL-28 melanoma
[47] = test system: SK-MEL-5 melanoma
[48] = test system: SK-OV-3 ovarian
[49] = test system: SN12C renal
[50] = test system: SNB-19 CNS
[51] = test system: SR leukemia
[52] = test system: SW-620 colon
[53] = test system: T-47D breast
[54] = test system: TK-10 renal
[55] = test system: U251 CNS
[56] = test system: UACC-257 melanoma
[57] = test system: UO-31 renal
[58] = test system: SNB-75 CNS
[59] = test system: UACC-62 melanoma

In the case of `COC(=O)c1c(O)ccc2c1c1c(n2Cc2ccccc2OC)C(=O)c2ccccc2C1=O`, the TGI [1] is reported as 24 µM, the TGI [2] is reported as > 100 µM and the TGI [3] is reported as 20.2 µM. For the same molecule, the TGI [4] was 29.7 µM, the TGI [5] was 32.1 µM and the TGI [6] was 37.9 µM. For the same molecule, the TGI [7] was 17.7 µM, the TGI [8] was 3.31 µM and the TGI [9] was 30 µM. The TGI [10] was 45 µM, the TGI [11] was 15.7 µM and the TGI [12] was 16.6 µM. For the same molecule, the TGI [13] was 20 µM, the TGI [14] was 18.3 µM and the TGI [15] was 27.8 µM. It also gave a TGI [16] of 22.4 µM, a TGI [17] of 53.2 µM and a TGI [18] of 21.3 µM. The TGI [19] was 28.3 µM, the TGI [20] was 17.3 µM and the TGI [21] was 23.4 µM. The TGI [22] was 26.3 µM, the TGI [23] was 22.6 µM and the TGI [24] was 40.5 µM. For the same molecule, the TGI [25] was 43.7 µM, the TGI [26] was 54.9 µM and the TGI [27] was 27.7 µM. The TGI [28] was 37.9 µM, the TGI [29] was 1.42 µM and the TGI [30] was 39.3 µM. For the same molecule, the TGI [31] was 34.8 µM, the TGI [32] was 16.6 µM and the TGI [33] was 26.8 µM. It also gave a TGI [34] of 39.2 µM, a TGI [35] of 23 µM and a TGI [36] of 26.9 µM. For the same molecule, the TGI [37] was 40.1 µM, the TGI [38] was 27.4 µM and the TGI [39] was 24.5 µM. The TGI [40] was 10.5 µM, the TGI [41] was 30.7 µM and the TGI [42] was 29.7 µM. It also gave a TGI [43] of 63.6 µM, a TGI [44] of 47.1 µM and a TGI [45] of 32.5 µM. The TGI [46] was 36.1 µM, the TGI [47] was 25.8 µM and the TGI [48] was 53.7 µM. For the same molecule, the TGI [49] was 25.4 µM, the TGI [50] was 95.9 µM and the TGI [51] was 3.18 µM. The TGI [52] was 29.8 µM, the TGI [53] was 9.58 µM and the TGI [54] was 65 µM. The TGI [55] was 24.4 µM, the TGI [56] was 55.1 µM and the TGI [57] was 36.9 µM.
For `CCCc1nc(Cl)c(Cl)c(Cl)n1`, the TGI [1] was > 31.6 µM, the TGI [2] was > 100 µM and the TGI [3] was > 100 µM. The TGI [5] was 77.9 µM, the TGI [6] was 27.7 µM and the TGI [7] was > 44.2 µM. For the same molecule, the TGI [8] was > 100 µM, the TGI [9] was > 100 µM and the TGI [10] was 43.7 µM. The TGI [12] was 26.8 µM, the TGI [13] was > 63.7 µM and the TGI [14] was 37.2 µM. For the same molecule, the TGI [15] was > 83.4 µM, the TGI [16] was > 61.7 µM and the TGI [17] was 44.3 µM. The TGI [18] was > 100 µM, the TGI [19] was 50.4 µM and the TGI [20] was > 45.9 µM. For the same molecule, the TGI [21] was > 100 µM, the TGI [22] was 17.7 µM and the TGI [23] was > 76.1 µM. For the same molecule, the TGI [24] was > 51.4 µM, the TGI [25] was > 78.6 µM and the TGI [26] was 67.9 µM. The TGI [27] was > 62 µM, the TGI [28] was > 100 µM and the TGI [29] was 46.9 µM. For the same molecule, the TGI [30] was > 94.6 µM, the TGI [31] was > 100 µM and the TGI [32] was > 100 µM. The TGI [33] was 30.5 µM, the TGI [34] was > 100 µM and the TGI [35] was 18.7 µM. It also gave a TGI [36] of 33.4 µM, a TGI [37] of 97.9 µM and a TGI [38] of 51 µM. The TGI [39] was > 100 µM, the TGI [40] was 3.94 µM and the TGI [41] was 56.4 µM. For the same molecule, the TGI [42] was 33.4 µM, the TGI [43] was > 100 µM and the TGI [44] was 68.6 µM. The TGI [46] was > 100 µM, the TGI [47] was > 100 µM and the TGI [48] was > 100 µM. For the same molecule, the TGI [49] was > 31.6 µM, the TGI [50] was > 96.4 µM and the TGI [58] was > 100 µM. The TGI [51] was > 50.7 µM, the TGI [52] was > 52.2 µM and the TGI [53] was > 100 µM. For the same molecule, the TGI [54] was > 100 µM, the TGI [55] was 30.1 µM and the TGI [56] was > 100 µM. The TGI [59] was > 100 µM and the TGI [57] was 5.61 µM.
In the case of `COc1c(C(C)(C)C)cc(CC2C(=O)C=CC2=O)cc1C(C)(C)C`, the TGI [1] is reported as > 22.3 µM, the TGI [2] is reported as 32.9 µM and the TGI [3] is reported as 55.4 µM. For the same molecule, the TGI [4] was 22.5 µM, the TGI [5] was 41.1 µM and the TGI [6] was 30.5 µM. The TGI [7] was 14.9 µM, the TGI [8] was 24 µM and the TGI [9] was 15.5 µM. The TGI [10] was 37.7 µM, the TGI [12] was 13 µM and the TGI [13] was 37.6 µM. The TGI [14] was 11.3 µM, the TGI [15] was 36.9 µM and the TGI [16] was 37 µM. It also gave a TGI [17] of 70.4 µM, a TGI [18] of 36.1 µM and a TGI [19] of 29.2 µM. The TGI [20] was 14.1 µM, the TGI [21] was 34 µM and the TGI [22] was 40.2 µM. The TGI [23] was 39.6 µM, the TGI [24] was 49.6 µM and the TGI [25] was 45.5 µM. The TGI [26] was 36.5 µM, the TGI [27] was 37.4 µM and the TGI [28] was 39.6 µM. The TGI [29] was 10.3 µM, the TGI [31] was 48.9 µM and the TGI [32] was 41.2 µM. The TGI [33] was 5.03 µM, the TGI [34] was > 80.6 µM and the TGI [35] was 33.9 µM. It also gave a TGI [36] of 89.5 µM, a TGI [37] of 35.8 µM and a TGI [38] of 66.9 µM. The TGI [39] was 35.8 µM, the TGI [40] was 11.6 µM and the TGI [41] was 30.4 µM. The TGI [42] was 40 µM, the TGI [43] was 44 µM and the TGI [44] was 48.3 µM. It also gave a TGI [45] of 36.7 µM, a TGI [46] of 43.4 µM and a TGI [47] of 33.9 µM. The TGI [48] was 56 µM, the TGI [49] was > 73 µM and the TGI [50] was 33.9 µM. The TGI [51] was 19.1 µM, the TGI [52] was 28.2 µM and the TGI [53] was 12.7 µM. It also gave a TGI [54] of 12.1 µM, a TGI [55] of 35.4 µM and a TGI [56] of 32.4 µM. It also gave a TGI [59] of 33.2 µM and a TGI [57] of 27.5 µM.

Source: PubChem BioAssay (NCI)
